Reference: patent US8933123B2, “Polymorphic forms of O-desmethyl-venlafaxine succinate” (Cadila Healthcare Limited, priority 2010, dated 2015)

Experiment: Storage stability of packed crystalline forms (water content and polymorphic conversion by X-ray powder diffraction)
Format: physicochemical
Excerpt: The crystalline form of O-desmethyl-venlafaxine succinate obtained in example-5 or example-6 were stored under nitrogen atmosphere and packed in a non-permeable bag tied with a thread, keeping primary packing inside a black color polyethylene bag containing oxygen busters and sealing it, placing above the non-permeable bag inside a triple laminated bag containing oxygen busters and sealing it, and placing the sealed triple laminated bag inside a closed high density polyethylene (HDPE) container.

[1] = storage for 3 months at 25° C. and a relative humidity of 60%
[2] = storage for 3 months at 40° C. and a relative humidity of 75%

water content after storage [1]	water content after storage [2]	Compound	crystalline Form-I or Form-II detected by X-ray powder diffraction after storage [1]	crystalline Form-I or Form-II detected by X-ray powder diffraction after storage [2]
≤ 1.5%	≤ 1.5%	CN(C)CC(c1ccc(O)cc1)C1(O)CCCCC1.O=C(O)CCC(=O)O (centres unmarked) [Form “Z1”, O-desmethyl-venlafaxine succinate]	no detectable amount of crystalline Form-I or Form-II	no detectable amount of crystalline Form-I or Form-II
≤ 3.0%	≤ 3.0%	CN(C)CC(c1ccc(O)cc1)C1(O)CCCCC1.O=C(O)CCC(=O)O (centres unmarked) [Form “Z”, O-desmethyl-venlafaxine succinate]	no detectable amount of crystalline Form-I or Form-II	no detectable amount of crystalline Form-I or Form-II
